# Measurements published in patent US12037322B2, “AHR agonists” (Eli Lilly and Company, priority 2021, dated 2024).
# pEC50: −log10 of the molar value.
# Target: T1, hAHR (Homo sapiens, UniProt P35869)
# T1 construct: expressed in transfected cells
# T1 sequence (P35869 11-848): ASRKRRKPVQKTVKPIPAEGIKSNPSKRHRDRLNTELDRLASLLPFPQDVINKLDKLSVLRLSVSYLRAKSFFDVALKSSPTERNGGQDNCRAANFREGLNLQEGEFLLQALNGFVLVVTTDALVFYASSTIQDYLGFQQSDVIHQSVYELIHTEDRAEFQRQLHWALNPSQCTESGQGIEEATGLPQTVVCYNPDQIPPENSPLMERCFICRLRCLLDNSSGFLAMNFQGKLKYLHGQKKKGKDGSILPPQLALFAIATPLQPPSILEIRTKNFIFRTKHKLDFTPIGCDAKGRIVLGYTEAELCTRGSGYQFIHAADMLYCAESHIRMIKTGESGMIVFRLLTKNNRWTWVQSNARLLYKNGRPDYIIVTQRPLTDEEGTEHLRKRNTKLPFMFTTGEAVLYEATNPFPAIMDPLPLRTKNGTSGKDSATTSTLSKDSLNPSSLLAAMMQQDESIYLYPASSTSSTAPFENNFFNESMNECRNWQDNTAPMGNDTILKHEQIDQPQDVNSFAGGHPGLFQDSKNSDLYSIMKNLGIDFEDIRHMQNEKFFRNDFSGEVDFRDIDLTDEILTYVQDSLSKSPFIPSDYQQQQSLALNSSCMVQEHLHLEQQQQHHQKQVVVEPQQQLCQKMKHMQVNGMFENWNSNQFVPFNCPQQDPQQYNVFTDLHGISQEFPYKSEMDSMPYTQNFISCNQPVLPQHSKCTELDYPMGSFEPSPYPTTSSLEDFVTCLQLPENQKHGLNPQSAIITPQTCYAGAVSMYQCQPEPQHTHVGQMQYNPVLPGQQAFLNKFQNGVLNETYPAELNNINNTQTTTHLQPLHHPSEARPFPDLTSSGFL
# Experiment: hAHR nuclear translocation assay
# Type: cell-based
# Conditions: Jump-In T-REx HEK293 cells expressing AhR-EGFP; 45 min incubation; ratio of EGFP intensity in nuclear over cytosol; 20-point curve
# Description: Stable cell lines were established using Jump-In™ T-REx™ HEK293 Retargeting Kit (Life Technologies). hAhR cDNA was cloned into the pJTI R4 CMV-TO EGFP vector. The EGFP was cloned to the C-terminal of AHR to form AhR-EGFP chimera. The pJTI R4 CMV-TO AhR-EGFP vector was transfected using FuGENE® HD into Jump-In™ T-REx™ HEK293 cells. Transfected cells were selected using 2.5 mg/ml G418 for 10 to 14 days, then expanded, harvested, and suspended in freeze media (FBS with 8% DMSO) at 2×10^7 cells/mL, and aliquots were stored in liquid nitrogen. One day before the assay date, cells were thawed and resuspended in DMEM with 5% FBS in the presence of 1 μg/mL Doxycycline and plated into ploy-L-Lysine coated […]-384 ULTRA Microplates (Perkin Elmer) at 12,000 to 15,000 cells per well and incubated at 37° C. and 5% CO2 overnight. On the assay date, compound was serially diluted (1:2) into 384-well nunc plates with DMSO using acoustic dispensing (ECHO). The dose response was a 20-point curve. Compound was resuspended in 40 μL of DMEM plus 0.1% BSA. The culture media was damped and 25 μL of DMEM plus 0.1% BSA was added, then 25 μL of compound in DMEM plus 0.1% BSA was added into cell plates. Cells were incubated with compounds at 37° C. and 5% CO2 for 45 min.
# The final DMSO concentration was 0.2%. The media was damped after 45 minutes incubation. The cells were fixed with 40 μL of cold MeOH (−20° C.) for 20 min. The MeOH was damped and 50 μL of DPBS containing 1 μg/mL Hochst was added into the cell plates. The intensity of EGFP was quantitated by using OPERA PHENIX® or Operetta™ high content image system (Perkin Elmer) with 20× Water Objective and five field per well. The ratio of EGFP fluorescent intensity in nuclear over cytosol was analyzed using a 4-parameter nonlinear logistic equation to determine the potency of AhR agonists.
row,SMILES,pEC50
1,"C[C@H]1CCc2c1cc(C(=O)Nc1nnc(C(F)(F)F)o1)c(=O)n2C [Example 11, (5S)-1,5-Dimethyl-2-oxo-N-[5-(trifluoromethyl)-1,3,4-oxadiazol-2-yl]-6,7-dihydro-5H-cyclopenta[b]pyridine-3-carboxamide]",7.19
2,"CC1CCc2c1cc(C(=O)Nc1ncccn1)c(=O)n2C (single isomer, unassigned) [Example 80, 1,5-Dimethyl-2-oxo-N-pyrimidin-2-yl-6,7-dihydro-5H-cyclopenta[b]pyridine-3-carboxamide]",7.96
3,"CC1CCc2c1cc(C(=O)Nc1ncc(C(F)(F)F)cn1)c(=O)n2C (single isomer, unassigned) [Example 65, 1,5-Dimethyl-2-oxo-N-[5-(trifluoromethyl)pyrimidin-2-yl]-6,7-dihydro-5H-cyclopenta[b]pyridine-3-carboxamide]",8.91
4,"CC1CCc2c1cc(C(=O)Nc1ccc(C(F)(F)F)cn1)c(=O)n2C (single isomer, unassigned) [Example 58, 1,5-Dimethyl-2-oxo-N-[5-(trifluoromethyl)-2-pyridyl]-6,7-dihydro-5H-cyclopenta[b]pyridine-3-carboxamide]",8.44
5,"CC1CCc2c1c(O)c(C(=O)Nc1ncc(Cl)cn1)c(=O)n2C (single isomer, unassigned) [Example 94, N-(5-Chloropyrimidin-2-yl)-4-hydroxy-1,5-dimethyl-2-oxo-6,7-dihydro-5H-cyclopenta[b]pyridine-3-carboxamide]",9.27
6,"COc1cnc(NC(=O)c2c(O)c3c(n(C)c2=O)CCC3C)nc1 (single isomer, unassigned) [Example 102, 4-Hydroxy-N-(5-methoxypyrimidin-2-yl)-1,5-dimethyl-2-oxo-6,7-dihydro-5H-cyclopenta[b]pyridine-3-carboxamide]",8.59
7,"COc1cnc(NC(=O)c2c(O)c3c(n(C)c2=O)CCC3C)nc1 (stereo not drawn) [Example 27, 4-Hydroxy-N-(5-methoxypyrimidin-2-yl)-1,5-dimethyl-2-oxo-6,7-dihydro-5H-cyclopenta[b]pyridine-3-carboxamide]",8.19
8,"C[C@@H]1CCc2c1cc(C(=O)Nc1ncc(Cl)cn1)c(=O)n2C [Example 25, (5R)-N-(5-Chloropyrimidin-2-yl)-1,5-dimethyl-2-oxo-6,7-dihydro-5H-cyclopenta[b]pyridine-3-carboxamide]",8.72

# Further lines, results first:
row,pEC50,SMILES
1,7.59,"Cn1c2c(cc(C(=O)Nc3ccccc3)c1=O)COCC2 [Example 106, 1-Methyl-2-oxo-N-phenyl-7,8-dihydro-5H-pyrano[4,3-b]pyridine-3-carboxamide]"
2,6.72,"CC1CCc2c1cc(C(=O)NC1CCCC1)c(=O)n2C (stereo not drawn) [Example 9, N-Cyclopentyl-1,5-dimethyl-2-oxo-6,7-dihydro-5H-cyclopenta[b]pyridine-3-carboxamide]"
3,8.58,"CC1CCc2c1c(O)c(C(=O)Nc1cnsc1)c(=O)n2C (single isomer, unassigned) [Example 41, 4-Hydroxy-N-isothiazol-4-yl-1,5-dimethyl-2-oxo-6,7-dihydro-5H-cyclopenta[b]pyridine-3-carboxamide]"
4,9.28,"C[C@@H]1CCc2c1cc(C(=O)Nc1ccccc1)c(=O)n2C [Example 66, (5R)-1,5-Dimethyl-2-oxo-N-phenyl-6,7-dihydro-5H-cyclopenta[b]pyridine-3-carboxamide]"
5,8.56,"CC1CCc2c1c(O)c(C(=O)Nc1ccns1)c(=O)n2C (single isomer, unassigned) [Example 36, 4-Hydroxy-N-isothiazol-5-yl-1,5-dimethyl-2-oxo-6,7-dihydro-5H-cyclopenta[b]pyridine-3-carboxamide]"
6,8.28,"C[C@@H]1CCc2c1cc(C(=O)Nc1cnsc1)c(=O)n2C [Example 20, (5R)-N-Isothiazol-4-yl-1,5-dimethyl-2-oxo-6,7-dihydro-5H-cyclopenta[b]pyridine-3-carboxamide]"
7,8.79,"CC1CCc2c1c(O)c(C(=O)Nc1ncc(F)cn1)c(=O)n2C (stereo not drawn) [Example 30, N-(5-Fluoropyrimidin-2-yl)-4-hydroxy-1,5-dimethyl-2-oxo-6,7-dihydro-5H-cyclopenta[b]pyridine-3-carboxamide]"
